{"source": "patent US20120122840A1", "about": "“COMPOUNDS AND THERAPEUTIC USES THEREOF” (Myrexis, Inc., priority 2009, published 2012)", "key": {"[1]": {"target": "T1, Aurora A (Homo sapiens, UniProt O14965)", "T1 sequence (O14965 1-403)": "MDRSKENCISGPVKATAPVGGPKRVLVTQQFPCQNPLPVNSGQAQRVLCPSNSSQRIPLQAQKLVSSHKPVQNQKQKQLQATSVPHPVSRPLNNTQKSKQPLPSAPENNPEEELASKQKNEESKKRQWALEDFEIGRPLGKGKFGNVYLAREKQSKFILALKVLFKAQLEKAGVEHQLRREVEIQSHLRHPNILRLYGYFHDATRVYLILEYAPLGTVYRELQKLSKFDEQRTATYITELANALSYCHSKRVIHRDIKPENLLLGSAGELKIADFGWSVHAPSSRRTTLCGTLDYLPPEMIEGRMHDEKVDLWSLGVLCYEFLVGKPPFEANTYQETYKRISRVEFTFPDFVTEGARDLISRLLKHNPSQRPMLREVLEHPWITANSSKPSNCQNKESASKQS", "assay": "Direct target affinity purification (DTAP) from cell lysates", "type": "binding", "details": "compound coupled to Sepharose beads", "text": "(§1) Direct target affinity purification (DTAP) was used to investigate (1) the selectivity of compounds of the invention for TTK, relative to other kinases, and (2) the importance of a specific methyl substituent in providing that selectivity.\n(§2) In preparation for DTAP studies, the two compounds depicted above were synthesized with an alkyl-amine linker to allow covalent coupling to epoxy-activated Sepharose 6B beads (GE Healthcare, Piscataway, N.J.). Sepharose beads were swollen and washed with water for 30 min followed by equilibration in coupling buffer (50% dimethylformamide, 50 mM Na2CO3). Beads were pelleted by centrifugation (15 sec at 2000×g) and the supernatant removed by aspiration. An equal volume of coupling buffer containing the linkered test compound was used to resuspend the beads. Compound concentrations in the coupling reaction ranged from 0.1 mM to 12.5 mM. The coupling reactions were incubated at 34° C. for 18 hrs on a rotator mixer. Ethanolamine was added to 1 M for the final 1 hr to quench the coupling reaction. Beads were washed extensively with binding buffer (1 M NaCl, 50 mM Hepes [pH 7.4], 1% Triton X-100, 1 mM EDTA and 1 mM dithiothreitol) to remove residual coupling reagents, and were then stored at 4° C.\n(§3) Cellular proteins were prepared by mild sonication in lysis buffer (150 mM NaCl, 50 mM Hepes [pH 7.4], 1% Triton X-100, 1 mM EDTA and 2 mM dithiothrietol containing 1× Halt™ protease and phosphatase inhibitor cocktail [Thermo Fisher Scientific, Rockford, Ill.]). Lysates were centrifuged (20,000×g for 20 min) to remove debris, diluted to a protein concentration of ˜5 mg/ml, divided into aliquots, and stored at −80° C.\n(§4) For DTAP reactions, cell lysates (˜0.5 ml per binding reaction) were thawed and the NaCl concentration adjusted to 1 M. Competitor compounds dissolved in DMSO (or a DMSO control) were then added to the lysate and incubated on ice for 5 min. The lysates were centrifuged at 20,000×g for 10 min and the cleared supernatant was transferred to a tube containing 50 μl of coupled beads. The binding reactions were incubated on a rotator mixer at 4° C. for 2 hrs, after which the beads were pelleted by centrifugation and the supernatant removed by aspiration. The beads were washed three times with 20 volumes of binding buffer, 2× with 20 volumes wash buffer (150 mM NaCl, 50 mM Hepes [pH 7.4], 1% Tween 20, 1 mM EDTA, 2 mM dithiothrietol) and finally twice with 10 volumes of 150 mM NaCl, 50 mM Hepes [pH 7.4].\n(§5) During the final wash, an aliquot containing 10 μl of beads was transferred to a separate tube and resuspended with 15 μl of 2× SDS/PAGE loading buffer (Invitrogen Corporation, Carlsbad, Calif.) for 5 min at 90° C. The eluted proteins were resolved by electrophoresis on a NuPage 4-12% Bis-Tris Gel (Invitrogen Corporation, Carlsbad, Calif.) and visualized by staining with Ruby Red (Invitrogen Corporation, Carlsbad, Calif.). The remaining beads (40 μl) were processed for analysis by mass spectrometry."}, "[2]": {"target": "T2, FER (Homo sapiens, UniProt P16591)", "T2 sequence (P16591 whole entry, species assumed)": "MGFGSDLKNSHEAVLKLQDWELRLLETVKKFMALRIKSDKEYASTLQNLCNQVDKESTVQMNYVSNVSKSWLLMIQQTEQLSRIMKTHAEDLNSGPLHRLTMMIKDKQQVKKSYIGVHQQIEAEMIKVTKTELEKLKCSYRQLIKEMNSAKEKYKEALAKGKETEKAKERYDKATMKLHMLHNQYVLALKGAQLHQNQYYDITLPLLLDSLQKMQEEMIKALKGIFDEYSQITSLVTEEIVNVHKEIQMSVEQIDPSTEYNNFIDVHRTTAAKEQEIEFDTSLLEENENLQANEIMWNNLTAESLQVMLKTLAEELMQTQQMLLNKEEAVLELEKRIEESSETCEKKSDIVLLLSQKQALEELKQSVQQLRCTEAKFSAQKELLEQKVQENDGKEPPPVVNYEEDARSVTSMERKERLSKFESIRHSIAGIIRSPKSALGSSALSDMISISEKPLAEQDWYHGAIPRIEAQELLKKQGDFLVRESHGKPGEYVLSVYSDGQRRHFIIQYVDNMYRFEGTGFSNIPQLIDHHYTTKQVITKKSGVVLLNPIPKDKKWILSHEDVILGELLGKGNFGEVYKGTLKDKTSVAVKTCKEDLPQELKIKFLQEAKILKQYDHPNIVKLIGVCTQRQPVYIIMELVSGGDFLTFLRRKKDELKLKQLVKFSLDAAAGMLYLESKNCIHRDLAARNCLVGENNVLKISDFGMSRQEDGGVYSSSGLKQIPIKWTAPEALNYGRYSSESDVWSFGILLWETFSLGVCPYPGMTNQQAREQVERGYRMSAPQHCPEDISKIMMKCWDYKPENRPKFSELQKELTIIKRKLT", "assay": "Direct target affinity purification (DTAP) from cell lysates", "type": "binding", "details": "compound coupled to Sepharose beads", "text": "as §1, §2, §3, §4, §5"}, "[3]": {"target": "T3, JAK1 (Homo sapiens, UniProt P23458)", "T3 construct": "Cellular proteins were prepared by mild sonication in lysis buffer; endogenous in cells", "T3 sequence (P23458 whole entry, species assumed)": "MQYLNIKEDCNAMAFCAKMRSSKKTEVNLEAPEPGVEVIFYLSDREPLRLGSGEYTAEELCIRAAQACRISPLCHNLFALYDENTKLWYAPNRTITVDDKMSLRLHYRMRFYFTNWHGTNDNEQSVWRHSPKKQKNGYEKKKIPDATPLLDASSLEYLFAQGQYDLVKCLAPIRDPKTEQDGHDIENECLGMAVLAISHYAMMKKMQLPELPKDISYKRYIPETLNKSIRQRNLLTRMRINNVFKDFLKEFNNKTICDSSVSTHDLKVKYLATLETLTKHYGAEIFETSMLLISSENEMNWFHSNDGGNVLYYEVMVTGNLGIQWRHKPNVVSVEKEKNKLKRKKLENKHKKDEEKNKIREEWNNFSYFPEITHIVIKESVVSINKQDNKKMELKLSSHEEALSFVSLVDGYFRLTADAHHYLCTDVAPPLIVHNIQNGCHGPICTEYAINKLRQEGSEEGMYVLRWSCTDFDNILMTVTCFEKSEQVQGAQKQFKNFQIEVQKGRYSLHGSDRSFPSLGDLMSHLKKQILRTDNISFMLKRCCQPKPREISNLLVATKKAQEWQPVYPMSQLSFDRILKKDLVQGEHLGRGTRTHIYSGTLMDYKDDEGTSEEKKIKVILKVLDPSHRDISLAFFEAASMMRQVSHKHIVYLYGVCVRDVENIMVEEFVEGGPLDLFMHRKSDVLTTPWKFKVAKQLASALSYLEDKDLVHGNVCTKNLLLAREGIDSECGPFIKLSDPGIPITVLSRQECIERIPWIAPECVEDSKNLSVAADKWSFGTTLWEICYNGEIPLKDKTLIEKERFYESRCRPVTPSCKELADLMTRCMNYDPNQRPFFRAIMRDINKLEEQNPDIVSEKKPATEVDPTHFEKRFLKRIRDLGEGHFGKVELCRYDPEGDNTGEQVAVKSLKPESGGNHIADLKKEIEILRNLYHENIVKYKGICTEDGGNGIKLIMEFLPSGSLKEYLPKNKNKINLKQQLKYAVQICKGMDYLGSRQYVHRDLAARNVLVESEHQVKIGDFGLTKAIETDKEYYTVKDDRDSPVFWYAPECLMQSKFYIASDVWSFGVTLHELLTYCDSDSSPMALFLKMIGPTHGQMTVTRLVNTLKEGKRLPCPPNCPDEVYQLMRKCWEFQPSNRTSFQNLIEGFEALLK", "assay": "Direct target affinity purification (DTAP) from cell lysates", "type": "binding", "details": "compound coupled to Sepharose beads", "text": "as §1, §2, §3, §4, §5"}, "[4]": {"target": "T4, JNK (Homo sapiens, UniProt P45983)", "T4 sequence (P45983 whole entry)": "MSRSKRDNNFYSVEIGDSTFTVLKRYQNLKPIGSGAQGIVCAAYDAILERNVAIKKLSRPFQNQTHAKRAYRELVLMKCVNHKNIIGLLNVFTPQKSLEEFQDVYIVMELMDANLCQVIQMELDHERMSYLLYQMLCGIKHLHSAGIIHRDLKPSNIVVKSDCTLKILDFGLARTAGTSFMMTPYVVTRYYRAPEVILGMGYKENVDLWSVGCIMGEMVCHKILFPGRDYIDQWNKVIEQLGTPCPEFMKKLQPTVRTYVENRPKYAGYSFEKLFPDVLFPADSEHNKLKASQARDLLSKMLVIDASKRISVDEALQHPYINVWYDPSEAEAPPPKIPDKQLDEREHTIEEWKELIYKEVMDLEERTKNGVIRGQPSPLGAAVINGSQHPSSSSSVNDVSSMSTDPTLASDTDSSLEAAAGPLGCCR", "assay": "Direct target affinity purification (DTAP) from cell lysates", "type": "binding", "details": "compound coupled to Sepharose beads", "text": "as §1, §2, §3, §4, §5"}, "[5]": {"target": "T1, Aurora A", "assay": "In vitro binding assays"}, "[6]": {"target": "T2, FER", "assay": "In vitro binding assays"}, "[7]": {"target": "T4, JNK", "assay": "In vitro binding assays"}, "[8]": {"target": "T3, JAK1", "assay": "In vitro binding assays"}, "[9]": {"target": "T5, TTK (Homo sapiens, UniProt P33981)", "T5 sequence (P33981 1-857)": "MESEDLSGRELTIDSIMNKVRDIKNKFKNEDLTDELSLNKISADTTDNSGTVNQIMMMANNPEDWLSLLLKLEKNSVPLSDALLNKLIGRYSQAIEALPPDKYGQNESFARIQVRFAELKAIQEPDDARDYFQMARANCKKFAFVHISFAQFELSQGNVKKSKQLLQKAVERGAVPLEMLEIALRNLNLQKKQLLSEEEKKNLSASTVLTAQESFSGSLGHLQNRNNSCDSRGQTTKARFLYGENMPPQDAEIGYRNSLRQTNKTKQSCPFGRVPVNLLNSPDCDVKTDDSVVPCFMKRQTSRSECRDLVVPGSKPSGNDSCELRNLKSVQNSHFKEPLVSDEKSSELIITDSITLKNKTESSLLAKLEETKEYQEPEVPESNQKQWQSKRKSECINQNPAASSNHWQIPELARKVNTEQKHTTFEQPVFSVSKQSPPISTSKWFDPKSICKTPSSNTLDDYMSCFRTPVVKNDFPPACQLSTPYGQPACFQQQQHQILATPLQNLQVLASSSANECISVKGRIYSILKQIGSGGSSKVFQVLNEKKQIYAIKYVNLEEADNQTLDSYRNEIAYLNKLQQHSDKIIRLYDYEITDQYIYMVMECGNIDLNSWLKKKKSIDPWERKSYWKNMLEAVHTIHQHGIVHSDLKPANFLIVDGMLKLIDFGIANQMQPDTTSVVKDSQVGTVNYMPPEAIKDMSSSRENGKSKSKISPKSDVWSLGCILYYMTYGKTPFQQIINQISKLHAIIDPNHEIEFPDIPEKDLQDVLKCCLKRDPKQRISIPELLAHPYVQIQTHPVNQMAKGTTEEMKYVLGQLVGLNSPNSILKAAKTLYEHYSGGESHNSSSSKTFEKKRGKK", "assay": "TTK inhibition assay ([γ-33P]ATP transfer to phosphorylated MBP)", "type": "biochemical", "set-up": "A. Recombinant TTK enzyme", "details": "read-out: inhibition of the protein kinase activity of TTK, IC50", "procedure": "The compounds of the invention were also tested in the following assay to determine TTK-inhibitory activity. This assay measures transfer of radioactive phosphate from ATP to a protein substrate in the presence or absence of a test compound.\nMATERIALS: • A. Recombinant TTK enzyme; • B. Phosphorylated myelin basic protein (MBP); • C. [γ-^33P]ATP: 1 mCi/100 μL; • D. Positive Control: a proprietary compound known to have […] in this assay.\nFinal concentrations of reaction mixture components (50 μl total volume): 50 mM Tris-HCl, pH 7.5; 0.01% Triton X-100; 10 mM MgCl2; 25 ng TTK (˜4 nM); 5 μM Phosphorylated MBP; 40 μM ATP (1 μCi/well, adjusted ATP specific activity according to strength of radiolabeled ATP).\nMixes were assembled in the wells of a 96-well polypropylene plate as follows: 1 μL 50× compound to be tested; 39 μL 1.282× Reaction Mix; 10 μL 5×ATP Mix.\nThe following reaction/assay steps were then performed: • 1. Mix thoroughly and incubate at room temperature for 45 minutes; • 2. Add 70 μL/well, except in background wells, of 3% phosphoric acid to terminate reaction, and transfer 100 μL to P81 filter plate; • 3. Wash with 1% phosphoric acid, then dry the P81 filter plate completely; • 4. Add 100 μL/well MicroSint-20 (PerkinElmer #6013621) and seal; • 5."}, "[10]": {"system": "p53 on serine 15 and H2AX on serine 139", "assay": "Effect of ATM, ATM/ATR and DNA-PK inhibitors on Compound A-induced phosphorylation in HCT-116 cells", "type": "cell-based", "details": "5 μM inhibitor with 1 μM Compound A", "procedure": "Phosphorylation of either p53 on serine 15 or H2AX on serine 139 is often mediated by the DNA damage checkpoint proteins, ATM or ATR. […] As a positive control, cells were treated with the UV mimetic 4-NQO (5 μM). Cell lysates were analyzed by Western blot with anti-p53, anti-p53-pS15, anti-H2AX-pS139 and anti-GAPDH antibodies (see FIGS. 6A-6C). […] Phosphorylation of p53 on serine 15 and H2AX on serine 139 appears mediated by ATR kinase in response to TTK inhibition."}, "[11]": {"system": "HCT-116 cells", "assay": "Effect of caspase inhibition on Compound A responses in HCT-116 cells", "type": "cell-based", "procedure": "Caspase 3/7 activity was determined with a Caspase-Glo 3/7 assay (see FIG. 7A). Cell lysates were analyzed by Western blot with antibodies specific for H2AX-pS139, p53-pS15, p53 or GAPDH (see FIG. 7B)."}, "[12]": {"system": "HeLa cells", "assay": "Cell cycle progression after double thymidine block (propidium iodide, flow cytometry)", "type": "cell-based", "details": "VX-680 at 500 nM", "procedure": "HeLa cells were synchronized in the G1 phase of the cell cycle using a double thymidine block. The cells were released from the block by removing the media and replacing it with media containing DMSO, 500 nM VX-680 (Aurora inhibitor), or a TTK inhibitor. At the indicated time points, cells were fixed with methanol, permeabilized and stained with propidium iodide. DNA content was analyzed using a Guava EasyCyte flow cytometer.\nThis is due to improper spindle formation and chromosome segregation followed by failed cytokinesis. Previously, it has been shown that inhibition of TTK using siRNA results in chromosome missegregation and mitotic defects. Using TTK inhibitors of the present invention, defects in chromosome segregation were observed. Therefore, the effect of the TTK inhibitors of the present invention were analyzed for their effect on cell cycle progression and/or DNA content."}}, "note": "Peptide text beside a SMILES is read from it. * marks the point of attachment. Cbz = O=C(OCc1ccccc1)*; CH2F = FC*"}
{"smiles": "Cc1cc(OCCCN)ccc1Nc1nc(NC2CCCCC2)c2nc[nH]c2n1", "note": "[N2-(4-(3-Aminopropoxy)-2-methylphenyl)-N6-cyclohexyl-9H-purine-2,6-diamine]", "values": [{"measurement": "binding of Aurora A from cell lysates to bead-coupled compound", "setting": "[1]", "value": "failed to bind"}, {"measurement": "binding of FER from cell lysates to bead-coupled compound", "setting": "[2]", "value": "reduced affinity"}, {"measurement": "binding of JAK1 from cell lysates to bead-coupled compound", "setting": "[3]", "value": "reduced affinity"}, {"measurement": "binding of JNK from cell lysates to bead-coupled compound", "setting": "[4]", "value": "reduced affinity"}, {"measurement": "IC50", "setting": "[5]", "value": "> 5000", "unit": "nM"}, {"measurement": "IC50", "setting": "[6]", "value": 380, "unit": "nM"}, {"measurement": "IC50", "setting": "[7]", "value": 120, "unit": "nM"}, {"measurement": "IC50", "setting": "[8]", "value": "> 5000", "unit": "nM"}, {"measurement": "IC50", "setting": "[9]", "value": 3, "unit": "nM"}]}
{"smiles": "O=c1cc(-c2cccc3c2Sc2ccccc2S3)oc(N2CCOCC2)c1", "note": "[KU-55933]", "values": [{"measurement": "effect on p53 (and H2AX) phosphorylation in response to Compound A", "setting": "[10]", "value": "had no effect"}]}
{"smiles": "O=C(NC(NC(=S)Nc1ccc(F)c([N+](=O)[O-])c1)C(Cl)(Cl)Cl)C(c1ccccc1)c1ccccc1", "note": "(centres unmarked) [CGK733]", "values": [{"measurement": "effect on p53 (and H2AX) phosphorylation in response to Compound A", "setting": "[10]", "value": "blocked p53 and H2AX phosphorylation"}]}
{"smiles": "COC(=O)C[C@H](NC(=O)[C@H](C)NC(=O)[C@@H](NC(=O)OCc1ccccc1)C(C)C)C(=O)CF", "note": "[Z-VAD-FMK] (Cbz-Val-Ala-Asp(OMe)-CH2F)", "values": [{"measurement": "effect on TTK inhibitor-induced H2AX phosphorylation", "setting": "[11]; 100 μM Z-VAD-FMK 1 hour before 1 μM Compound A, 48 hours", "value": "prevents TTK inhibitor-induced H2AX phosphorylation"}, {"measurement": "effect on TTK inhibitor-induced p53 phosphorylation and on cell viability", "setting": "[11]; 100 μM Z-VAD-FMK pre-treatment, viability after 72 hours (Cell Titer-Glo)", "value": "has no effect on either p53 phosphorylation or cell viability"}]}
{"smiles": "Cc1cc(Nc2cc(N3CCN(C)CC3)nc(Sc3ccc(NC(=O)C4CC4)cc3)n2)n[nH]1", "note": "[VX-680]", "values": [{"measurement": "DNA content / cell cycle progression after release from G1 block", "setting": "[12]", "value": "causes cells to become tetraploid"}]}
